Where a SMILES comes first, the peptide text is derived from it. Bridges are numbered along the chain shown (N, C = ends). [ ]: non-standard residue; d: D form. The star is where a group is joined. hPhe(3-Cl-4-CF3) = N[C@@H](CCc1ccc(C(F)(F)F)c(Cl)c1)C(=O)O; NPrPhe(4-CF3) = CCCN[C@@H](Cc1ccc(C(F)(F)F)cc1)C(=O)O; NMeAbu(4,4,4-F3) = CN[C@@H](CC(F)(F)F)C(=O)O; NMeGly(cPent) = CN[C@H](C(=O)O)C1CCCC1; Pro(4,4-F2) = O=C(O)[C@@H]1CC(F)(F)CN1; NMeD = CN[C@@H](CC(=O)O)C(=O)O; NMeL = CN[C@@H](CC(C)C)C(=O)O; Morpholide = C1CN(*)CCO1; Ac5c = NC1(C(=O)O)CCCC1; Sar = CNCC(=O)O
What was measured:
[1] = tested on: human lung cancer strain NCI-H441; assay type: cell-based
How it was run: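 Readout: […] after the ATP-based reagent. Compound: serial dilutions in dimethyl sulfoxide.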

HRAS wild-type protein = HRAS wild-type protein (Homo sapiens, UniProt P01112); test: Binding to HRAS by surface plasmon resonance (SPR), KD and KD ratio to KRAS
How it was run: (§1)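 GDP-loaded biotinylated Avi-tag RAS proteins (E. coli-expressed) captured on a Biotin CAPture chip at ~100–300 RU; single-cycle kinetics at 30°C, 100 µL/min, 75 s injections of rising compound concentrations. HBS pH 7.4 running buffer with 1 mM DTT, 10 mM MgCl2, 10 µM GDP, 4% DMSO. KD from 1:1 binding fit.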

[2] = target: GDP-bound NRAS wild-type protein (Homo sapiens, UniProt P01111); test: Binding to NRAS by surface plasmon resonance (SPR), KD and KD ratio to KRAS
How it was run: as §1

[3] = ratio of KD for HRAS wild-type protein to KD for KRAS
[4] = ratio of KD for GDP-bound NRAS wild-type protein to KD for KRAS

GDP-bound NRAS wild-type protein, sequence (P01111 whole entry): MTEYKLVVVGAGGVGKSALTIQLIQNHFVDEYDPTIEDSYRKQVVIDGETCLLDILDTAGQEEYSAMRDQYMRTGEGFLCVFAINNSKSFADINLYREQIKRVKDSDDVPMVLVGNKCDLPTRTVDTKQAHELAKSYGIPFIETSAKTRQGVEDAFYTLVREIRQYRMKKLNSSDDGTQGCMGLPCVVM
HRAS wild-type protein, sequence (P01112 whole entry): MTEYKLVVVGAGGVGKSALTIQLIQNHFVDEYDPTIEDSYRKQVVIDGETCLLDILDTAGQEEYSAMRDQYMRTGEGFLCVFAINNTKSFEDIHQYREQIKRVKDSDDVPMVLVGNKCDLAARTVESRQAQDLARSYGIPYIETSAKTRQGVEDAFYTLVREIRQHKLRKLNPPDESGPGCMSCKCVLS

| Structure (SMILES) | IC50 [1] | HRAS /KRAS (HRAS wild-type protein; [3]) | NRAS /KRAS [2, 4] | HRAS /KRAS (HRAS wild-type protein; ratio of the KD value with respect to HRAS wild-type protein to the KD value with respect to KRAS) | NRAS /KRAS ([2]; ratio of the KD value with respect to GDP-bound NRAS wild-type protein to the KD value with respect to KRAS) | HRAS /KRAS (HRAS wild-type protein; ratio of KD value for HRAS wild-type protein to KD value for KRAS (SPR)) | NRAS /KRAS ([2]; ratio of KD value for GDP-bound NRAS wild-type protein to KD value for KRAS (SPR)) |
| --- | --- | --- | --- | --- | --- | --- | --- |
| CCCN1C(=O)CN(C)C(=O)CNC(=O)[C@H]([C@@H](C)CC)NC(=O)[C@H](CC(C)C)N(C)C(=O)C[C@@H](C(=O)N(C)C)NC(=O)[C@H](C2CCCC2)N(C)C(=O)C2(CCCC2)NC(=O)[C@@H]2CC(F)(F)CN2C(=O)[C@H](CCc2ccc(C(F)(F)F)c(Cl)c2)NC(=O)CN(C)C(=O)[C@@H]1Cc1ccc(C(F)(F)F)cc1 [PP0363] ([NMeL]IG[Sar][NPrPhe(4-CF3)][Sar][hPhe(3-Cl-4-CF3)][Pro(4,4-F2)][Ac5c][NMeGly(cPent)]D-NMe2; lactam N-11) | 91.4 nM | C (A compound having a KD ratio of 0.1 or more and less than 3 is denoted as C) | B (a compound having 3 or more and less than 10 is denoted as B) |  |  |  |  |
| CCO[C@@H]1C[C@H]2C(=O)NC3(CCC3)C(=O)N(C)[C@@H](C3CCCC3)C(=O)N(CC)[C@H](C(=O)N(C)C)CC(=O)N(C)[C@@H](CC)C(=O)N[C@@H]([C@@H](C)CC)C(=O)N(C)CC(=O)N(C)[C@H]3C/C=C\CCN(C3=O)[C@@H](Cc3ccc(C(F)(F)F)cc3)C(=O)N(C)CC(=O)N[C@@H](CCc3cc(F)c(C(F)(F)F)c(F)c3)C(=O)N2C1 [PP0980] | 223 nM | B (a compound having 3 or more and less than 10 is denoted as B) | A (a compound having 10 or more and less than 20 is denoted as A) |  |  |  |  |
| CCO[C@@H]1C[C@H]2C(=O)NC3(CCC3)C(=O)N(C)[C@@H](C3CCCC3)C(=O)N(C)[C@H](C(=O)N(C)C)CC(=O)N(C)[C@@H](C)C(=O)N[C@@H]([C@@H](C)CC)C(=O)N(C)CC(=O)N(C)[C@H]3C/C=C\CCN(C3=O)[C@@H](Cc3ccc(C(F)(F)F)cc3)C(=O)N(C)CC(=O)N[C@@H](CCc3cc(F)c(C(F)(F)F)c(F)c3)C(=O)N2C1 [PP1108] | 28.3 nM | A (a compound having 10 or more and less than 20 is denoted as A) | A (a compound having 10 or more and less than 20 is denoted as A) |  |  |  |  |
| CCO[C@@H]1C[C@H]2C(=O)NC3(CC(C)(C)C3)C(=O)N(C)[C@@H](C3CCCC3)C(=O)N(C)[C@H](C(=O)N(C)CC)CC(=O)N(C)[C@@H](CC(C)C)C(=O)N[C@@H]([C@@H](C)CC)C(=O)NCC(=O)N(C)[C@H]3C/C=C\CCN(C3=O)[C@@H](Cc3ccc(C(F)(F)F)cc3)C(=O)N(C)CC(=O)N[C@@H](CCc3cc(F)c(C(F)(F)F)c(F)c3)C(=O)N2C1 [PP1771] | 6.6 nM |  |  |  |  | A (a compound having 10 or more and less than 20 is denoted as A) | A (a compound having 10 or more and less than 20 is denoted as A) |

Molecules with a lower IC50 [1], results first:

| IC50 [1] | Structure (SMILES) | HRAS /KRAS (HRAS wild-type protein; [3]) | NRAS /KRAS [2, 4] | HRAS /KRAS (HRAS wild-type protein; ratio of the KD value with respect to HRAS wild-type protein to the KD value with respect to KRAS) | NRAS /KRAS ([2]; ratio of the KD value with respect to GDP-bound NRAS wild-type protein to the KD value with respect to KRAS) | HRAS /KRAS (HRAS wild-type protein; ratio of KD value for HRAS wild-type protein to KD value for KRAS (SPR)) | NRAS /KRAS ([2]; ratio of KD value for GDP-bound NRAS wild-type protein to KD value for KRAS (SPR)) |
| --- | --- | --- | --- | --- | --- | --- | --- |
| 3.2 nM | CCO[C@@H]1C[C@H]2C(=O)NC3(CC(C)(C)C3)C(=O)N(C)[C@@H](C(CC)CC)C(=O)N(C)[C@H](C(=O)N(C)C)CC(=O)N(C)[C@@H](CC)C(=O)N[C@@H]([C@@H](C)CC)C(=O)N(C)CC(=O)N(C)[C@H]3C/C=C\CCN(C3=O)[C@@H](Cc3ccc(C(F)(F)F)cc3)C(=O)N(C)CC(=O)N[C@@H](CCc3ccc(C(F)(F)F)c(OC)c3)C(=O)N2C1 [PP2066] |  |  | B (a compound having 3 or more and less than 10 is denoted as B) | A (a compound having 10 or more and less than 20 is denoted as A) |  |  |
| 3.5 nM | CCCN1C(=O)CN(C)C(=O)CN(C)C(=O)[C@H]([C@@H](C)CC)NC(=O)[C@H](CC(F)(F)F)N(C)C(=O)C[C@@H](C(=O)N2CCOCC2)N(C)C(=O)[C@H](C2CCCC2)N(C)C(=O)C2(CCCC2)NC(=O)[C@@H]2CC(F)(F)CN2C(=O)[C@H](CCc2ccc(C(F)(F)F)c(Cl)c2)NC(=O)CN(C)C(=O)[C@@H]1Cc1ccc(C(F)(F)F)cc1 [PP0199] ([NMeAbu(4,4,4-F3)]I[Sar][Sar][NPrPhe(4-CF3)][Sar][hPhe(3-Cl-4-CF3)][Pro(4,4-F2)][Ac5c][NMeGly(cPent)][NMeD]-Morpholide; lactam N-11) | C (A compound having a KD ratio of 0.1 or more and less than 3 is denoted as C) | B (a compound having 3 or more and less than 10 is denoted as B) |  |  |  |  |

— EP4603105A1, “PHARMACEUTICAL COMPOSITION CONTAINING CYCLIC COMPOUND HAVING SELECTIVE KRAS INHIBITORY EFFECT AGAINST HRAS AND NRAS” (CHUGAI SEIYAKU KABUSHIKI KAISHA, priority 2022, dated 2024)
